US6399574B1 (priority 1997, dated 2002)
Where “and” joins values, the source holds several entries; their conditions need not be identical. Identical values can stand only once.

Assays:
[1] = test system: Frings audiogenic seizure-susceptible mice; conditions: mouse, in vivo
[2] = test system: Frings audiogenic seizure susceptible mice; conditions: mouse, in vivo

Row | SMILES | toxicity (rotorod) [1] | animals protected [2]
1 | NC(=O)OCC(COC(N)=O)c1ccccc1 [Felbamate, reference compound] | no marked | 5/8 protected and 4/8 protected
2 | CC1(C)O[C@@H]2[C@@H](CO[C@@]3(COS(N)(=O)=O)OC(C)(C)O[C@@H]23)O1 [Topiramate, reference compound] | no marked | –
